Assay results from US9663525B2, “Pyrazolopyrimidinyl inhibitors of ubiquitin-activating enzyme” (Millennium Pharmaceuticals, Inc., priority 2012, dated 2017).
Read-outs that look alike come from different tables or passages of the source.

Target: recombinant human UAE (Homo sapiens (Human), UniProt P22314)
Experiment: Ubiquitin Activating Enzyme (UAE) HTRF assay, human UAE
Description: After incubation for 120 minutes, quantification of the FRET is performed on the Pherostar (BMG).
For compounds whose values are marked with an asterisk (*), mouse UAE was used. For all other compounds, human UAE was used.

Sequence of recombinant human UAE (P22314 whole entry): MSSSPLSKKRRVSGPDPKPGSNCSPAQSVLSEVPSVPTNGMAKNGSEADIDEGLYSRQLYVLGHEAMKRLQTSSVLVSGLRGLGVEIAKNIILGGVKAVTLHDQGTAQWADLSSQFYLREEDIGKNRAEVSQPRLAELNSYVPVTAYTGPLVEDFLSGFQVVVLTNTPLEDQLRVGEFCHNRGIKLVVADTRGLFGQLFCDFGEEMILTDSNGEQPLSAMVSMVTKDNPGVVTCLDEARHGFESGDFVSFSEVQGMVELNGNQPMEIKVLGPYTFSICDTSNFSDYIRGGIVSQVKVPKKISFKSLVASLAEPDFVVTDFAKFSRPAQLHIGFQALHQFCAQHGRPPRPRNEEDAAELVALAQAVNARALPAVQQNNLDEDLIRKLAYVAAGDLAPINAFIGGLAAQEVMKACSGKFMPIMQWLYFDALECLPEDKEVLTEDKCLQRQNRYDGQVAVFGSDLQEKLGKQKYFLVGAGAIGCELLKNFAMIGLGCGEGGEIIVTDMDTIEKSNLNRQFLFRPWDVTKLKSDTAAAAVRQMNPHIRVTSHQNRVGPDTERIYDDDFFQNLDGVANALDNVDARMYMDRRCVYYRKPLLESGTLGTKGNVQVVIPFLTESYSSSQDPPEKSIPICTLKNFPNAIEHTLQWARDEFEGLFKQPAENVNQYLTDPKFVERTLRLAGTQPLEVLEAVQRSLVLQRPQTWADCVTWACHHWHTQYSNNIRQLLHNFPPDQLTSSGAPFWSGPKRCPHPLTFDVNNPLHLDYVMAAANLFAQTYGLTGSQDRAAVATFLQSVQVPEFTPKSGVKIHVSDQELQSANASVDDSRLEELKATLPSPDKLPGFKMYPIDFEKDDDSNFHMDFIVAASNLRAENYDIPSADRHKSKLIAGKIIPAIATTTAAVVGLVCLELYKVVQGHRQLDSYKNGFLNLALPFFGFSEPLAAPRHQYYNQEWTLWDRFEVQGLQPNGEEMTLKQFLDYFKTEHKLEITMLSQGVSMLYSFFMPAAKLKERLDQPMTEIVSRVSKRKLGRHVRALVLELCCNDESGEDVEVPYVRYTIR

Row | SMILES | IC50 [nM] | IC50 (human UAE) [nM]
1 | NS(=O)(=O)OC[C@H]1C[C@@H](Nc2ccnc3cc(-c4ccc5[nH]ccc5c4)nn23)[C@H](O)[C@@H]1O (racemic) [Compound I-074, (rac)-[(1R,2R,3S,4R)-2,3-dihydroxy-4-{[2-(1H-indol-5-yl)pyrazolo[1,5-a]pyrimidin-7-yl]amino}cyclopentyl]methyl rel-sulfamate] | 10 to 100 | 
2 | NS(=O)(=O)OC[C@H]1C[C@@H](Nc2ccnc3cc(-c4ccccc4SC(F)(F)F)nn23)[C@H](O)[C@@H]1O (racemic) [Compound I-079, (rac)-((1R,2R,3S,4R)-2,3-dihydroxy-4-(2-(2-(trifluoromethylthio)phenyl)pyrazolo[1,5-a]pyrimidin-7-ylamino)cyclopentyl)methyl rel-sulfamate] | 10 to 100 | 
3 | NS(=O)(=O)OC[C@H]1C[C@@H](Nc2ccnc3cc(-c4ccc(SC(F)(F)F)cc4)nn23)[C@H](O)[C@@H]1O (racemic) [Compound I-080, (rac)-((1R,2R,3S,4R)-2,3-dihydroxy-4-(2-(4-(trifluoromethylthio)phenyl)pyrazolo[1,5-a]pyrimidin-7-ylamino)cyclopentyl)methyl rel-sulfamate] | 10 to 100 | 
4 | NS(=O)(=O)OC[C@H]1C[C@@H](Nc2ccnc3cc(-c4cc5ccc(Cl)cc5s4)nn23)[C@H](O)[C@@H]1O (racemic) [Compound I-088, (rac)-((1R,2R,3S,4R)-4-(2-(6-chlorobenzo[b]thiophen-2-yl)pyrazolo[1,5-a]pyrimidin-7-ylamino)-2,3-dihydroxycyclopentyl)methyl rel-sulfamate] | 10 to 100 | 
5 | CCc1ccc2sc(-c3cc4nccc(N[C@@H]5C[C@H](COS(N)(=O)=O)[C@@H](O)[C@H]5O)n4n3)cc2c1 (racemic) [Compound I-095, (rac)-((1R,2R,3S,4R)-4-(2-(5-ethylbenzo[b]thiophen-2-yl)pyrazolo[1,5-a]pyrimidin-7-ylamino)-2,3-dihydroxycyclopentyl)methyl rel-sulfamate] | 10 to 100 | 
6 | Cn1cc(-c2cccc(-c3cc4nccc(N[C@@H]5C[C@H](COS(N)(=O)=O)[C@@H](O)[C@H]5O)n4n3)c2)cn1 (racemic) [Compound I-122, (rac)-[(1R,2R,3S,4R)-2,3-dihydroxy-4-({2-[3-(1-methyl-1H-pyrazol-4-yl)phenyl]pyrazolo[1,5-a]pyrimidin-7-yl}amino)cyclopentyl]methyl rel-sulfamate] | < 10 | 
7 | Cc1cc(N[C@@H]2C[C@H](COS(N)(=O)=O)[C@@H](O)[C@H]2O)n2nc(-c3ccccc3)cc2n1 (relative stereo) [Compound I-004, (rac)-{(1R,2R,3S,4R)-2,3-dihydroxy-4-[(5-methyl-2-phenylpyrazolo[1,5-a]pyrimidin-7-yl)amino]cyclopentyl}methyl rel-sulfamate] | 100 to 1000 | 
8 | NS(=O)(=O)OC[C@H]1C[C@@H](Nc2cc(Cl)nc3cc(-c4ccccc4)nn23)[C@H](O)[C@@H]1O (relative stereo) [Compound I-006, (rac)-{(1R,2R,3S,4R)-4-[(5-chloro-2-phenylpyrazolo[1,5-a]pyrimidin-7-yl)amino]-2,3-dihydroxycyclopentyl}methyl rel-sulfamate] | 100 to 1000 | 
9 | Cc1cnc2cc(-c3ccccc3)nn2c1N[C@@H]1C[C@H](COS(N)(=O)=O)[C@@H](O)[C@H]1O (relative stereo) [Compound I-089, (rac)-{(1R,2R,3S,4R)-2,3-dihydroxy-4-[(6-methyl-2-phenylpyrazolo[1,5-a]pyrimidin-7-yl)amino]cyclopentyl}methyl rel-sulfamate] | 100 to 1000 | 
10 | COC(=O)c1ccc2c(-c3cc4nccc(N[C@@H]5C[C@H](COS(N)(=O)=O)[C@@H](O)[C@H]5O)n4n3)cccc2c1 (relative stereo) [Compound I-096, (rac)-methyl rel-5-[7-({(1R,2S,3R,4R)-2,3-dihydroxy-4-[(sulfamoyloxy)methyl]cyclopentyl}amino)pyrazolo[1,5-a]pyrimidin-2-yl]-2-naphthoate] | < 10 | 
11 | CC(CO)(CCl)c1cccc(-c2cc3nccc(N[C@@H]4C[C@H](COS(N)(=O)=O)[C@@H](O)[C@H]4O)n3n2)c1 (relative stereo) [Compound I-123, (rac)-{(1R,2R,3S,4R)-4-[(2-{3-[2-chloro-1-(hydroxymethyl)-1-methylethyl]phenyl}pyrazolo[1,5-a]pyrimidin-7-yl)amino]-2,3-dihydroxycyclopentyl}methyl rel-sulfamate] | < 10 | 
12 | NS(=O)(=O)OC[C@H]1C[C@@H](Nc2ccnc3cc(-c4cccc5ccccc45)nn23)[C@H](O)[C@@H]1O [Compound I-098, (s.e.)-((1R,2R,3S,4R)-2,3-dihydroxy-4-{[2-(1-naphthyl)pyrazolo[1,5-a]pyrimidin-7-yl]amino}cyclopentyl)methyl sulfamate] |  | < 10
13 | COc1ccc(OC(F)(F)F)cc1-c1cc2nccc(N[C@@H]3C[C@H](COS(N)(=O)=O)[C@@H](O)[C@H]3O)n2n1 [Compound I-102, (s.e)-[(1R,2R,3S,4R)-2,3-dihydroxy-4-({2-[2-methoxy-5-(trifluoromethoxy)-phenyl]pyrazolo[1,5-a]pyrimidin-7-yl}amino)cyclopentyl]methyl sulfamate] |  | < 10

Other lines, results leading:

Row | IC50 [nM] | IC50 (human UAE) [nM] | SMILES
14 | < 10 |  | NS(=O)(=O)OC[C@H]1C[C@@H](Nc2ccnc3cc(-c4cccc5[nH]ccc45)nn23)[C@H](O)[C@@H]1O (racemic) [Compound I-075, (rac)-((1R,2R,3S,4R)-4-(2-(1H-indol-4-yl)pyrazolo[1,5-a]pyrimidin-7-ylamino)-2,3-dihydroxycyclopentyl)methyl rel-sulfamate]
15 | < 10 |  | NS(=O)(=O)OC[C@H]1C[C@@H](Nc2ccnc3cc(-c4cccc(N5CCCCC5)c4)nn23)[C@H](O)[C@@H]1O (racemic) [Compound I-077, (rac)-((1R,2R,3S,4R)-2,3-dihydroxy-4-(2-(3-(piperidin-1-yl)phenyl)pyrazolo[1,5-a]pyrimidin-7-ylamino)cyclopentyl)methyl rel-sulfamate]
16 | < 10 |  | NS(=O)(=O)OC[C@H]1C[C@@H](Nc2ccnc3cc(-c4cccc(N5CCOCC5)c4)nn23)[C@H](O)[C@@H]1O (racemic) [Compound I-078, (rac)-((1R,2R,3S,4R)-2,3-dihydroxy-4-(2-(3-morpholinophenyl)pyrazolo-[1,5-a]pyrimidin-7-ylamino)cyclopentyl)methyl rel-sulfamate]
17 | < 10 |  | NS(=O)(=O)OC[C@H]1C[C@@H](Nc2ccnc3cc(-c4csc5ccc(F)cc45)nn23)[C@H](O)[C@@H]1O (racemic) [Compound I-081, (rac)-((1R,2R,3S,4R)-4-(2-(5-fluorobenzo[b]thiophen-3-yl)pyrazolo[1,5-a]pyrimidin-7-ylamino)-2,3-dihydroxycyclopentyl)methyl rel-sulfamate]
18 | < 10 |  | C#Cc1cccc(-c2cc3nccc(N[C@@H]4C[C@H](COS(N)(=O)=O)[C@@H](O)[C@H]4O)n3n2)c1 (racemic) [Compound I-083, (rac)-[(1R,2R,3S,4R)-4-{[2-(3-ethynylphenyl)pyrazolo[1,5-a]pyrimidin-7-yl]amino}-2,3-dihydroxycyclopentyl]methyl rel-sulfamate]
19 | < 10 |  | CCOC(C)(C)c1cccc(-c2cc3nccc(N[C@@H]4C[C@H](COS(N)(=O)=O)[C@@H](O)[C@H]4O)n3n2)c1 (racemic) [Compound I-084, (rac)-((1R,2R,3S,4R)-4-(2-(3-(2-ethoxypropan-2-yl)phenyl)pyrazolo[1,5-a]pyrimidin-7-ylamino)-2,3-dihydroxycyclopentyl)methyl rel-sulfamate]
20 | < 10 |  | NS(=O)(=O)OC[C@H]1C[C@@H](Nc2ccnc3cc(-c4ccc5c(c4)C(=O)c4ccccc4-5)nn23)[C@H](O)[C@@H]1O (racemic) [Compound I-085, (rac)-((1R,2R,3S,4R)-2,3-dihydroxy-4-(2-(9-oxo-9H-fluoren-2-yl)pyrazolo[1,5-a]pyrimidin-7-ylamino)cyclopentyl)methyl rel-sulfamate]
21 | < 10 |  | NS(=O)(=O)OC[C@H]1C[C@@H](Nc2ccnc3cc(-c4cc5ccccc5o4)nn23)[C@H](O)[C@@H]1O (racemic) [Compound I-086, (rac)-((1R,2R,3S,4R)-4-(2-(benzofuran-2-yl)pyrazolo[1,5-a]pyrimidin-7-ylamino)-2,3-dihydroxycyclopentyl)methyl rel-sulfamate]
22 | < 10 |  | NS(=O)(=O)OC[C@H]1C[C@@H](Nc2ccnc3cc(-c4cccc(N5CCCC5=O)c4)nn23)[C@H](O)[C@@H]1O (racemic) [Compound I-087, (rac)-((1R,2R,3S,4R)-2,3-dihydroxy-4-(2-(3-(2-oxopyrrolidin-1-yl)phenyl)pyrazolo[1,5-a]pyrimidin-7-ylamino)cyclopentyl)methyl rel-sulfamate]
23 | < 10 |  | CCCOC(C)(C)c1cccc(-c2cc3nccc(N[C@@H]4C[C@H](COS(N)(=O)=O)[C@@H](O)[C@H]4O)n3n2)c1 (racemic) [Compound I-090, (rac)-((1R,2R,3S,4R)-2,3-dihydroxy-4-(2-(3-(2-propoxypropan-2-yl)phenyl)pyrazolo[1,5-a]pyrimidin-7-ylamino)cyclopentyl)methyl rel-sulfamate]
24 | < 10 |  | NS(=O)(=O)OC[C@H]1C[C@@H](Nc2ccnc3cc(-c4coc5ccc(Cl)cc45)nn23)[C@H](O)[C@@H]1O (racemic) [Compound I-092, (rac)-((1R,2R,3S,4R)-4-(2-(5-chlorobenzofuran-3-yl)pyrazolo[1,5-a]pyrimidin-7-ylamino)-2,3-dihydroxycyclopentyl)methyl rel-sulfamate]
25 | < 10 |  | NS(=O)(=O)OC[C@H]1C[C@@H](Nc2ccnc3cc(-c4ccc5c(c4)oc4ccccc45)nn23)[C@H](O)[C@@H]1O (racemic) [Compound I-093, (rac)-((1R,2R,3S,4R)-4-(2-(dibenzo[b,d]furan-3-yl)pyrazolo[1,5-a]pyrimidin-7-ylamino)-2,3-dihydroxycyclopentyl)methyl rel-sulfamate]
26 | < 10 |  | NS(=O)(=O)OC[C@H]1C[C@@H](Nc2ccnc3cc(-c4cncc(-c5ccccc5)n4)nn23)[C@H](O)[C@@H]1O (racemic) [Compound I-121, (rac)-((1R,2R,3S,4R)-2,3-dihydroxy-4-{[2-(6-phenylpyrazin-2-yl)pyrazolo[1,5-a]pyrimidin-7-yl]amino}cyclopentyl)methyl rel-sulfamate]
